The results in this text go back to US20040156869A1, “2-substituted quinazolin-4-ylamine analogues” (Neurogen Corporation, priority 2002, published 2004).

Molecules are shown by their SMILES.

The target of the assay is human capsaicin receptor (VR1) (Homo sapiens, UniProt Q8NER1). Kind of assay: Capsaicin receptor binding assay ([3H]RTX competition, VR1-transfected HEK293 membranes).
human capsaicin receptor (VR1), sequence (Q8NER1 whole entry): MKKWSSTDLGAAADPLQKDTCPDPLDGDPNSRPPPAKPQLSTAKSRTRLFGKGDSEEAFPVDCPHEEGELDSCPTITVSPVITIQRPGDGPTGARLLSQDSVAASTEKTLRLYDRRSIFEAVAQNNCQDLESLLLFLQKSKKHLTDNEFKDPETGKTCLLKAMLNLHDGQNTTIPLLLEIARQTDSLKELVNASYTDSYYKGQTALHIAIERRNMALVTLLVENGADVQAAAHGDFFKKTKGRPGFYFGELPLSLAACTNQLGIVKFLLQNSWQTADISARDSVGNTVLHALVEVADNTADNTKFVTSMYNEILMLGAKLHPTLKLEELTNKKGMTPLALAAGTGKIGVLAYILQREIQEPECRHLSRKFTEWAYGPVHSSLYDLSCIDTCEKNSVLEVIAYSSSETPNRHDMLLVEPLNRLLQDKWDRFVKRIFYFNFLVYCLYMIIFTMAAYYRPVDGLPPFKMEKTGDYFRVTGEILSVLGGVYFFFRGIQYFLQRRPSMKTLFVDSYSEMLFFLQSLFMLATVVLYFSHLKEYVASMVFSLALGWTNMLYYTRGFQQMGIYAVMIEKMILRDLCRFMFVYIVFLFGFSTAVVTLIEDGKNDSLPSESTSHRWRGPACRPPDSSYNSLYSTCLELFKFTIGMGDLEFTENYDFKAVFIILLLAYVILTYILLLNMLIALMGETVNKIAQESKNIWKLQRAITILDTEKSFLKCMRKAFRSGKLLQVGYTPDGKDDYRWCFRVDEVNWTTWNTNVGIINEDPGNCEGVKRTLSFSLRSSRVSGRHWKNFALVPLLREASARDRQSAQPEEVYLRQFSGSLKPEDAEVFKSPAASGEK
A word on the Ki: it is the dissociation constant of the complex between target and ligand, obtained from inhibition or displacement. Higher therefore signals lower affinity. As to `CCOCc1nc(Nc2ccc(C(F)(F)F)cc2)c2ccc(-c3ncccc3Cl)cc2n1` [Compound 81, [7-(3-Chloro-pyridin-2-yl)-2-ethoxymethyl-quinazolin-4-yl]-(4-trifluoromethyl-phenyl)-amine], the inhibitory constant (Ki) is under 1000 nM. Then `CCOCc1nc(Nc2ccc(C(C)(C)C)nc2)c2ccc(-c3ncccc3Cl)cc2n1` [Compound 82, (6-tert-Butyl-pyridin-3-yl)-[7-(3-chloro-pyridin-2-yl)-2-ethoxymethyl-quinazolin-4-yl]-amine], with under 1000 nM; and `COCCOCc1nc(Nc2ccc(C(C)(C)C#N)cc2)c2ccc(-c3ncccc3Cl)nc2n1` [Compound 83, 2-{4-[7-(3-Chloro-pyridin-2-yl)-2-(2-methoxy-ethoxymethyl)-pyrido[2,3-d]pyrimidin-4-ylamino]-phenyl}-2-methyl-propionitrile], with under 1000 nM.

As to `CCC(C)c1ccc(Nc2nc(COCCOC)nc3nc(-c4ncccc4Cl)ccc23)cc1` (stereo not drawn) [Compound 84, (4-sec-Butyl-phenyl)-[7-(3-chloro-pyridin-2-yl)-2-(2-methoxy-ethoxymethyl)-pyrido[2,3-d]pyrimidin-4-yl]-amine], the Ki is under 1000 nM. Then `COCCc1nc(Nc2ccc(C(F)(F)F)cc2)c2ccc(-c3ncccc3Cl)nc2n1` [Compound 85, [7-(3-Chloro-pyridin-2-yl)-2-(2-methoxy-ethyl)-pyrido[2,3-d]pyrimidin-4-yl]-(4-trifluoromethyl-phenyl)-amine], with under 1000 nM.

As to `FC(F)(F)c1ccc(Nc2nc(COC3CCOCC3)nc3cc(-c4ncccc4C(F)(F)F)ccc23)cc1` [Compound 86, [2-(Tetrahydro-pyran-4-yloxymethyl)-7-(3-trifluoromethyl-pyridin-2-yl)-quinazolin-4-yl]-(4-trifluoromethyl-phenyl)-amine], the Ki is under 1000 nM. `CN(C)CCOCc1nc(Nc2ccc(C(F)(F)F)cc2)c2ccc(-c3ncccc3C(F)(F)F)cc2n1` [Compound 87, [2-(2-Dimethylamino-ethoxymethyl)-7-(3-trifluoromethyl-pyridin-2-yl)-quinazolin-4-yl]-(4-trifluoromethyl-phenyl)-amine] registered a Ki of under 1000 nM. The molecule `COCc1nc(Nc2ccc(C(F)(F)F)cc2)c2ccc(-c3ncccc3C)nc2n1` [Compound 88, [2-Methoxymethyl-7-(3-methyl-pyridin-2-yl)-pyrido[2,3-d]pyrimidin-4-yl]-(4-trifluoromethyl-phenyl)-amine] had a Ki of under 1000 nM. The molecule `CN(C)CCCOCc1nc(Nc2ccc(C(F)(F)F)cc2)c2ccc(-c3ncccc3C(F)(F)F)cc2n1` [Compound 89, [2-(3-Dimethylamino-propoxymethyl)-7-(3-trifluoromethyl-pyridin-2-yl)-quinazolin-4-yl]-(4-trifluoromethyl-phenyl)-amine] came in with an inhibition constant Ki of under 1000 nM. `CCOCc1nc(Nc2ccc(C(F)(F)F)cc2)c2ccc(-c3ncccc3C)cc2n1` [Compound 90, [2-Ethoxymethyl-7-(3-methyl-pyridin-2-yl)-quinazolin-4-yl]-(4-trifluoromethyl-phenyl)-amine]: the Ki was under 1000 nM. Molecule `Cc1cccnc1-c1ccc2c(Nc3ccc(C(F)(F)F)cc3)nc(COC(C)C)nc2c1` [Compound 91, [2-Isopropoxymethyl-7-(3-methyl-pyridin-2-yl)-quinazolin-4-yl]-(4-trifluoromethyl-phenyl)-amine] returned an inhibition constant (Ki) of under 1000 nM. Then `Cc1cccnc1-c1ccc2c(Nc3ccc(C(F)(F)F)cc3)nc(COC3CCOCC3)nc2c1` [Compound 92, [7-(3-Methyl-pyridin-2-yl)-2-(tetrahydro-pyran-4-yloxymethyl)-quinazolin-4-yl]-(4-trifluoromethyl-phenyl)-amine], with under 1000 nM; and `CCC(C)c1ccc(Nc2nc(COC)nc3nc(-c4ncccc4C(F)(F)F)ccc23)cc1` (stereo not drawn) [Compound 93, (4-sec-Butyl-phenyl)-[2-methoxymethyl-7-(3-trifluoromethyl-pyridin-2-yl)-pyrido[2,3-d]pyrimidin-4-yl]-amine], with under 1000 nM; and `COCc1nc(Nc2ccc(C(C)C(F)(F)F)cc2)c2ccc(-c3ncccc3C(F)(F)F)nc2n1` (stereo not drawn) [Compound 94, [2-Methoxymethyl-7-(3-trifluoromethyl-pyridin-2-yl)-pyrido[2,3-d]pyrimidin-4-yl]-[4-(2,2,2-trifluoro-1-methyl-ethyl)-phenyl]-amine], with under 1000 nM. In turn, `COCc1nc(Nc2ccc(C(C)(C)C)cc2)c2ccc(-c3ncccc3C)nc2n1` [Compound 95, (4-tert-Butyl-phenyl)-[2-methoxymethyl-7-(3-methyl-pyridin-2-yl)-pyrido[2,3-d]pyrimidin-4-yl]-amine] showed an inhibition constant Ki of under 1000 nM. Turning to `COCc1nc(Nc2ccc(C(C)C)cc2)c2ccc(-c3ncccc3C)nc2n1` [Compound 96, (4-Isopropyl-phenyl)-[2-methoxymethyl-7-(3-methyl-pyridin-2-yl)-pyrido[2,3-d]pyrimidin-4-yl]-amine], the Ki is under 1000 nM.

In turn, `CCC(C)c1ccc(Nc2nc(COC)nc3nc(-c4ncccc4C)ccc23)cc1` (stereo not drawn) [Compound 97, (4-sec-Butyl-phenyl)-[2-methoxymethyl-7-(3-methyl-pyridin-2-yl)-pyrido[2,3-d]pyrimidin-4-yl]-amine] yielded an inhibition constant Ki of under 1000 nM. `COCc1nc(Nc2ccc(C(C)(C)C#N)cc2)c2ccc(-c3ncccc3C)nc2n1` [Compound 98, 2-{4-[2-Methoxymethyl-7-(3-methyl-pyridin-2-yl)-pyrido[2,3-d]pyrimidin-4-ylamino]-phenyl}-2-methyl-propionitrile] yielded a Ki of under 1000 nM. In the case of `CCOC(=O)c1nc(Nc2ccc(C(F)(F)F)cc2)c2ccc(-c3ncccc3C(F)(F)F)cc2n1` [Compound 99, 4-(4-Trifluoromethyl-phenylamino)-7-(3-trifluoromethyl-pyridin-2-yl)-quinazoline-2-carboxylic acid ethyl ester], the inhibition constant Ki is under 1000 nM. Then `O=C(O)c1nc(Nc2ccc(C(F)(F)F)cc2)c2ccc(-c3ncccc3C(F)(F)F)cc2n1` [Compound 100, 4-(4-Trifluoromethyl-phenylamino)-7-(3-trifluoromethyl-pyridin-2-yl)-quinazoline-2-carboxylic acid], with under 1000 nM.

Turning to `CC(C)c1ccc(Nc2nc(COC3CCOCC3)nc3cc(-c4ncccc4C(F)(F)F)ccc23)cc1` [Compound 101, (4-Isopropyl-phenyl)-[2-(tetrahydro-pyran-4-yloxymethyl)-7-(3-trifluoromethyl-pyridin-2-yl)-quinazolin-4-yl]-amine], the Ki is under 1000 nM. As for `FC(F)(F)c1ccc(Nc2nc(COC3CCOCC3)nc3cc(-c4ncccc4Cl)ccc23)cc1` [Compound 102, [7-(3-Chloro-pyridin-2-yl)-2-(tetrahydro-pyran-4-yloxymethyl)-quinazolin-4-yl]-(4-trifluoromethyl-phenyl)-amine], the inhibition constant Ki is under 1000 nM.

`CC(C)c1ccc(Nc2nc(COC3CCOCC3)nc3cc(-c4ncccc4Cl)ccc23)cc1` [Compound 103, [7-(3-Chloro-pyridin-2-yl)-2-(tetrahydro-pyran-4-yloxymethyl)-quinazolin-4-yl]-(4-isopropyl-phenyl)-amine] registered an inhibition constant (Ki) of under 1000 nM. Then `CCOCc1nc(Nc2ccc(C(C)C)cc2)c2ccc(-c3ncccc3C)cc2n1` [Compound 104, [2-Ethoxymethyl-7-(3-methyl-pyridin-2-yl)-quinazolin-4-yl]-(4-isopropyl-phenyl)-amine], with under 1000 nM. Then `Cc1cccnc1-c1ccc2c(Nc3ccc(C(C)C)cc3)nc(COC(C)C)nc2c1` [Compound 105, [2-Isopropoxymethyl-7-(3-methyl-pyridin-2-yl)-quinazolin-4-yl]-(4-isopropyl-phenyl)-amine], with under 1000 nM; and `Cc1cccnc1-c1ccc2c(Nc3ccc(C(C)C)cc3)nc(COC3CCOCC3)nc2c1` [Compound 106, (4-Isopropyl-phenyl)-[7-(3-methyl-pyridin-2-yl)-2-(tetrahydro-pyran-4-yloxymethyl)-quinazolin-4-yl]-amine], with under 1000 nM; and `COCc1nc(Nc2ccc(C(C)(C)C)cc2)c2ccc(-c3ncccc3C(F)(F)F)nc2n1` [Compound 107, (4-tert-Butyl-phenyl)-[2-methoxymethyl-7-(3-trifluoromethyl-pyridin-2-yl)-pyrido[2,3-d]pyrimidin-4-yl]-amine], with under 1000 nM. The molecule `COCc1nc(Nc2ccc(C(C)C)cc2)c2ccc(-c3ncccc3C(F)(F)F)nc2n1` [Compound 108, (4-Isopropyl-phenyl)-[2-methoxymethyl-7-(3-trifluoromethyl-pyridin-2-yl)-pyrido[2,3-d]pyrimidin-4-yl]-amine] had a Ki of under 1000 nM. For `COCc1nc(Nc2ccc(C(F)(F)F)cc2)c2ccc(-c3ncccc3C(F)(F)F)nc2n1` [Compound 109, [2-Methoxymethyl-7-(3-trifluoromethyl-pyridin-2-yl)-pyrido[2,3-d]pyrimidin-4-yl]-(4-trifluoromethyl-phenyl)-amine] the value was under 1000 nM. `COCc1nc(Nc2ccc(C3CCCC3)cc2)c2ccc(-c3ncccc3C(F)(F)F)nc2n1` [Compound 110, (4-Cyclopentyl-phenyl)-[2-methoxymethyl-7-(3-trifluoromethyl-pyridin-2-yl)-pyrido[2,3-d]pyrimidin-4-yl]-amine] registered an inhibition constant (Ki) of under 1000 nM. Then `CN(C)CCCCOCc1nc(Nc2ccc(C(C)(C)C)cc2)c2ccc(-c3ncccc3C(F)(F)F)cc2n1` [Compound 111, (4-tert-Butyl-phenyl)-[2-(4-dimethylamino-butoxymethyl)-7-(3-trifluoromethyl-pyridin-2-yl)-quinazolin-4-yl]-amine], with under 1000 nM; and `COCc1nc(Nc2ccc(S(C)(=O)=O)cc2)c2ccc(-c3ncccc3C(F)(F)F)nc2n1` [Compound 112, (4-Methanesulfonyl-phenyl)-[2-methoxymethyl-7-(3-trifluoromethyl-pyridin-2-yl)-pyrido[2,3-d]pyrimidin-4-yl]-amine], with under 1000 nM. For `COCc1nc(Nc2ccc(S(=O)(=O)C(F)(F)F)cc2)c2ccc(-c3ncccc3C(F)(F)F)nc2n1` [Compound 113, [2-Methoxymethyl-7-(3-trifluoromethyl-pyridin-2-yl)-pyrido[2,3-d]pyrimidin-4-yl]-(4-trifluoromethanesulfonyl-phenyl)-amine], the Ki was under 1000 nM.
